Consider one substance from patent US7422694B2, “Process for the microbiological decontamination of water by means of photosensitive agents” (priority 2001, dated 2008).

The subject of assay [1] is Staphylococcus aureus. The experiment in a line: Decrease in Staphylococcus aureus viability on exposure to visible light in the presence of hematoporphyrin (FIG. 8). Conditions: hematoporphyrin at 0.1 pg/ml and 1 μg/ml, cells in stationary or logarithmic growth phase. The class given is cell-based. The method, then:
FIG. 8 is a plot where the experimental results relating to the decrease in Staphylococcus aureus viability on exposure to visible light in the presence of hematoporphyrin at 0.1 pg/ml (circles) and 1 μg/ml (squares) concentrations were plotted. Bacterial cells were either in the stationary (closed symbols) or in the logarithmic (open symbols) growth phase.

Assay [2] relates to wild and antibiotics-resistant bacterial strains (e.g. Streptococcus and Staphylococcus strains), yeasts (e.g. Candida strains). Briefly: Phototoxicity of hematoporphyrin towards bacterial strains and yeasts. The class given is cell-based.

On to hematoporphyrin, for which the “photosensitised inactivation of Staphylococcus aureus” value in assay [1] is “effectively this porphyrin photosensitises the inactivation”. In assay [2], the phototoxicity entry was “exhibited phototoxicity”.
